In patent publication US9393221B2, “Methods and compounds for reducing intracellular lipid storage” (THE GENERAL HOSPITAL CORPORATION, priority 2011, dated 2016):
Counter-ions that a name gives are not always drawn.
For Z-score in this document: test concentration or dose not given here.

The compounds below were run on ATGL-KO iPSCs (assay: High throughput iPSC chemical screening, Oil Red O (ORO) lipid accumulation). Conditions: glycolytic switch compounds.
Assay type: cell-based, mouse
In the case of `Cc1cc2c(C(C)C)c(O)c(O)c(C=O)c2c(O)c1-c1c(C)cc2c(C(C)C)c(O)c(O)c(C=O)c2c1O` [Gossypol], the “Rank in normalized ORO score from screen” value is reported as 8.
With `CC1CC(OC(=O)c2ccccc2O)CC(C)(C)C1` (stereo not drawn) [Homosalate] the “Rank in normalized ORO score from screen” value was 320.

Same assay, conditions: normalized ORO level vs DMSO-treated cells; compound present during 7 days differentiation, 96-well; negative = decrease in lipid accumulation
Work on `COc1ccc(-c2ccc(=N)n(CCCC(=O)O)n2)cc1` [Gabazine] yielded a Z-score of −0.1416.
`CCOC(=O)c1ccc(OC(=O)CCCCCN=C(N)N)cc1.CS(=O)(=O)O` [Gabexate mesilate] gave a Z-score of −1.4041.
For `COc1ccc2c3c1O[C@H]1C[C@@H](O)C=C[C@@]31CCN(C)C2` [Galanthamine hydrobromide], the Z-score was −0.7931.
`CC[N+](CC)(CC)CCOc1cccc(OCC[N+](CC)(CC)CC)c1OCC[N+](CC)(CC)CC` [Gallamine triethiodide] was tested, and the Z-score was 0.8644.
`Nc1nc(O)c2ncn(COC(CO)CO)c2n1` [Ganciclovir] was tested, and the Z-score was −0.9945.
`C=C[C@]12CN(C)[C@@H]3[C@H]4CO[C@H](C[C@H]41)[C@]1(C(=O)Nc4ccccc41)[C@@H]32` [Gelsemine] gave a Z-score of −0.4693.
`Cc1ccc(C)c(OCCCC(C)(C)C(=O)O)c1` [Gemfibrozil] was tested, and the Z-score was −0.2634.
Compound `C=C1C[C@]23C[C@@]1(O)CC[C@H]2[C@@]12C=C[C@H](O)[C@@](C)(C(=O)O1)[C@H]2[C@@H]3C(=O)O` [Gibberellic acid] has a Z-score of 0.8089.
`C[C@@H]1C(=O)O[C@H]2C[C@@]34[C@H]5C[C@@H](C(C)(C)C)[C@]36[C@@H](OC(=O)[C@@H]6O)O[C@@]4(C(=O)O5)[C@]21O` [Ginkgolide A] showed a Z-score of −0.1024.
`O=C(OCC(O)CO)c1ccccc1Nc1ccnc2cc(Cl)ccc12` (stereo not drawn) [Glafenine hydrochloride] was tested, and the Z-score was −0.4014.
For `COc1ccc(Cl)cc1C(=O)NCCc1ccc(S(=O)(=O)NC(=O)NC2CCCCC2)cc1` [Glibenclamide], the Z-score was 0.3112.
Work on `Cc1ccc(S(=O)(=O)NC(=O)NN2CC3CCCC3C2)cc1` (stereo not drawn) [Gliclazide] yielded a Z-score of 0.2404.
In the case of `CCC1=C(C)CN(C(=O)NCCc2ccc(S(=O)(=O)NC(=O)N[C@H]3CC[C@H](C)CC3)cc2)C1=O` [Glimepiride], the Z-score is reported as 0.1043.
In the case of `Cc1cnc(C(=O)NCCc2ccc(S(=O)(=O)NC(=O)NC3CCCCC3)cc2)cn1` [Glipizide], the Z-score is reported as −0.2981.
`COc1ccc2c(c1)C(=O)N(CCc1ccc(S(=O)(=O)NC(=O)NC3CCCCC3)cc1)C(=O)C2(C)C` [Gliquidone] showed a Z-score of −0.9495.
Compound `CCC1(c2ccc(N)cc2)CCC(=O)NC1=O` (stereo not drawn) [Glutethimide, para-amino] has a Z-score of 0.2858.
For `C[C@H](CCC(=O)NCC(=O)O)[C@H]1CC[C@H]2[C@@H]3[C@H](O)C[C@@H]4C[C@H](O)CC[C@]4(C)[C@H]3C[C@H](O)[C@]12C` [Glycocholic acid], the Z-score was −0.6342.
For `C[N+]1(C)CCC(OC(=O)C(O)(c2ccccc2)C2CCCC2)C1` (stereo not drawn) [Glycopyrrolate], the Z-score was −0.6161.
`Cc1cc2c(C(C)C)c(O)c(O)c(C=O)c2c(O)c1-c1c(C)cc2c(C(C)C)c(O)c(O)c(C=O)c2c1O` [Gossypol] was tested, and the Z-score was −2.0704.
For `CN(C)Cc1c[nH]c2ccccc12` [Gramine], the Z-score was 1.618.
For `Cn1c(-c2ccc3c(c2)OCO3)cc(=O)c2ccccc21` [Graveoline], the Z-score was −1.0242.
Compound `COC1=CC(=O)C[C@@H](C)[C@]12Oc1c(Cl)c(OC)cc(OC)c1C2=O` [Griseofulvin] has a Z-score of 0.2728.
Work on `COc1ccccc1OCC(O)CO` (stereo not drawn) [Guaifenesin] yielded a Z-score of 0.144.
Compound `N=C(N)N/N=C/c1c(Cl)cccc1Cl` [Guanabenz acetate] has a Z-score of −0.3551.
`N=C(N)NC(=O)Cc1c(Cl)cccc1Cl` [Guanfacine hydrochloride] gave a Z-score of −0.0783.
Work on `CC1(C)O[C@@H]2C[C@H]3[C@@H]4CCC5=CC(=O)CC[C@]5(C)[C@@]4(F)[C@@H](O)C[C@]3(C)[C@]2(C(=O)CCl)O1` [Halcinonide] yielded a Z-score of −0.7085.
With `CCCCN(CCCC)CCC(O)c1cc2c(Cl)cc(Cl)cc2c2cc(C(F)(F)F)ccc12` (stereo not drawn) [Halofantrine hydrochloride] the Z-score was 1.459.
`O=C(CCCN1CCC(O)(c2ccc(Cl)cc2)CC1)c1ccc(F)cc1` [Haloperidol] gave a Z-score of −1.1776.
`COc1ccc2c3c([nH]c2c1)C(C)=NCC3.Cl.O.O` [Harmaline hydrochloride dihydrate] showed a Z-score of −0.5714.
Work on `CC1=NCCc2c1[nH]c1cc(O)ccc21.Cl.O.O` [Harmalol hydrochloride dihydrate] yielded a Z-score of 0.3888.
In the case of `COc1ccc2c(c1)[nH]c1c(C)nccc12.Cl` [Harmine hydrochloride], the Z-score is reported as 0.3085.
For `Cc1[nH]ccc2c1[nH]c1cc(=O)ccc12` [Harmol hydrochloride monohydrate], the Z-score was −0.0757.
`C[C@]1(OC(=O)/C=C/c2ccccc2)C[C@@H](O)[C@]2(O)C=CO[C@@H](O[C@@H]3O[C@H](CO)[C@@H](O)[C@H](O)[C@H]3O)[C@@H]21` [Harpagoside] was tested, and the Z-score was −1.174.
Compound `C[C@@H]1CC[C@@]2(OC1)O[C@H]1C[C@H]3[C@@H]4CC[C@@]5(C)C[C@@H](O)CC[C@]5(C)[C@H]4CC(=O)[C@]3(C)[C@H]1[C@@H]2C` [Hecogenin] has a Z-score of 0.9208.
With `CO[C@H](C)[C@](O)(C(=O)OCC1=CCN2CC[C@H](O)[C@@H]12)C(C)C` [Heliotrine] the Z-score was −1.2812.
Work on `C[N+]1(C)CCOC(O)(c2ccc(-c3ccc(C4(O)C[N+](C)(C)CCO4)cc3)cc2)C1.[Br-].[Br-]` (stereo not drawn) [Hemicholinium bromide] yielded a Z-score of 2.91.
`CC(N)CCCC(C)(C)O` (stereo not drawn) [Heptaminol hydrochloride] was tested, and the Z-score was −0.2987.
For `COc1ccc([C@@H]2CC(=O)c3c(O)cc(O)cc3O2)cc1O` [Hesperetin], the Z-score was −1.3358.
`COc1ccc([C@@H]2CC(=O)c3c(O)cc(O[C@@H]4O[C@H](CO[C@@H]5O[C@@H](C)[C@H](O)[C@@H](O)[C@H]5O)[C@@H](O)[C@H](O)[C@H]4O)cc3O2)cc1O` [Hesperidin] gave a Z-score of 2.254.
Compound `C[N+](C)(C)CCCCCC[N+](C)(C)C.O.O.[Br-].[Br-]` [Hexamethonium dibromide dihydrate] has a Z-score of −0.5997.
For `CC[C@H](c1ccc(O)cc1)[C@@H](CC)c1ccc(O)cc1` [Hexestrol], the Z-score was −1.0339.
Compound `CCCCC(CC)CN1CN(CC(CC)CCCC)CC(C)(N)C1` (stereo not drawn) [Hexetidine] has a Z-score of 1.396.
Compound `CC(CNC1CCCCC1)OC(=O)c1ccccc1` (stereo not drawn) [Hexylcaine hydrochloride] has a Z-score of 0.687.
For `CN1CCC2=C[C@H](O)[C@H]3OC(=O)c4cc5c(cc4[C@H]3[C@@H]21)OCO5` [Hippeastrine hydrobromide], the Z-score was −1.1441.
`CN1CCCN(C(c2ccccc2)c2ccc(Cl)cc2)CC1` (stereo not drawn) [Homochlorcyclizine dihydrochloride] was tested, and the Z-score was −0.8178.
In the case of `CC1CC(OC(=O)c2ccccc2O)CC(C)(C)C1` (stereo not drawn) [Homosalate], the Z-score is reported as −0.7744.
`CCN(CC)CCNc1ccc(CO)c2sc3ccccc3c(=O)c12` [Hycanthone] showed a Z-score of 20.1467.
`NNc1nncc2ccccc12` [Hydralazine hydrochloride] showed a Z-score of 9.342.
For `COc1ccc2c(c1OC)C(=O)O[C@@H]2[C@H]1c2cc3c(cc2CCN1C)OCO3` [Hydrastine hydrochloride], the Z-score was −0.3277.
`CN1CCc2cc3c(cc2C1O)OCO3` (stereo not drawn) [Hydrastinine hydrochloride] was tested, and the Z-score was −0.5549.
In the case of `NS(=O)(=O)c1cc2c(cc1Cl)NCNS2(=O)=O` [Hydrochlorothiazide], the Z-score is reported as 1.18.
`C[C@]12CCC(=O)C=C1CC[C@@H]1[C@@H]2[C@@H](O)C[C@@]2(C)[C@H]1CC[C@]2(O)C(=O)CO` [Hydrocortisone base] was tested, and the Z-score was −0.2176.
Compound `COc1c2c(cc3c1OCO3)CCN(C)C2` [Hydrocotarnine hydrobromide] has a Z-score of −0.8038.
`NS(=O)(=O)c1cc2c(cc1C(F)(F)F)NCNS2(=O)=O` [Hydroflumethiazide] showed a Z-score of 0.1855.
`CC[C@H]1CN2CC[C@H]1C[C@H]2[C@H](O)c1ccnc2ccc(OC)cc12` [Hydroquinine hydrobromide hydrate] showed a Z-score of 1.2243.
For `OCCOCCN1CCN(C(c2ccccc2)c2ccc(Cl)cc2)CC1` (stereo not drawn) [Hydroxyzine dihydrochloride], the Z-score was −0.9071.
In the case of `Cc1cc(=O)oc2cc(O)ccc12` [Hymecromone], the Z-score is reported as −0.7731.
`CN1[C@@H]2CC[C@H]1C[C@@H](OC(=O)[C@H](CO)c1ccccc1)C2` [Hyoscyamine (L)] was tested, and the Z-score was 1.204.
Compound `c1ccc2c(c1)OCC(C1=NCCN1)O2` (stereo not drawn) [Idazoxan hydrochloride] has a Z-score of −1.447.
In the case of `O=c1[nH]c(=O)n([C@H]2C[C@H](O)[C@@H](CO)O2)cc1I` [Idoxuridine], the Z-score is reported as −1.0734.
`O=P1(NCCCl)OCCCN1CCCl` (stereo not drawn) [Ifosfamide] showed a Z-score of −1.424.
In the case of `O=C(NCNC(=O)NC1C(=O)NC(=O)N1CO)NC1C(=O)NC(=O)N1CO` (stereo not drawn) [Imidurea], the Z-score is reported as 0.2567.
`C[C@@H](O)[C@H]1C(=O)N2C(C(=O)O)=C(SCCN=CN)C[C@H]12` [Imipenem] was tested, and the Z-score was −0.7436.
Work on `CN(C)CCCN1c2ccccc2CCc2ccccc21` [Imipramine hydrochloride] yielded a Z-score of 1.459.
`CC1Cc2ccccc2N1NC(=O)c1ccc(Cl)c(S(N)(=O)=O)c1` (stereo not drawn) [Indapamide] was tested, and the Z-score was −0.6747.
Work on `COc1ccc2c(c1)c(CC(=O)O)c(C)n2C(=O)c1ccc(Cl)cc1` [Indomethacin] yielded a Z-score of −0.7862.
In the case of `CC(C(=O)O)c1ccc(N2Cc3ccccc3C2=O)cc1` (stereo not drawn) [Indoprofen], the Z-score is reported as −1.4204.
Work on `CC(=O)N(CC(C)C(=O)O)c1c(I)cc(I)c(N)c1I` (stereo not drawn) [Iocetamic acid] yielded a Z-score of −1.5742.
With `O=C(CCCCC(=O)Nc1c(I)cc(I)c(C(=O)O)c1I)Nc1c(I)cc(I)c(C(=O)O)c1I` [Iodipamide] the Z-score was −0.3225.
Compound `CC(=O)N(CC(O)CO)c1c(I)c(C(=O)NCC(O)CO)c(I)c(C(=O)NCC(O)CO)c1I` (stereo not drawn) [Iohexol] has a Z-score of −1.1016.
With `C[C@H](O)C(=O)Nc1c(I)c(C(=O)NC(CO)CO)c(I)c(C(=O)NC(CO)CO)c1I` [Iopamidol] the Z-score was 1.108.
Compound `CCC(Cc1c(I)cc(I)c(N)c1I)C(=O)O` (stereo not drawn) [Iopanoic acid] has a Z-score of −0.7767.
`COCC(=O)Nc1c(I)c(C(=O)NCC(O)CO)c(I)c(C(=O)N(C)CC(O)CO)c1I` (stereo not drawn) [Iopromide] gave a Z-score of 0.2481.
Compound `O=C(NCC(O)CO)c1c(I)c(C(=O)NCC(O)CO)c(I)c(N(CCO)C(=O)CO)c1I` (stereo not drawn) [Ioversol] has a Z-score of 0.08392.
Work on `CNC(=O)c1c(I)c(C(=O)NCC(=O)Nc2c(I)c(C(=O)O)c(I)c(C(=O)NCCO)c2I)c(I)c(N(C)C(C)=O)c1I` [Ioxaglic acid] yielded a Z-score of −0.54.
`CC(C)[N+]1(C)[C@@H]2CC[C@H]1CC(OC(=O)C(CO)c1ccccc1)C2.[Br-]` (stereo partly drawn) [Ipratropium bromide] was tested, and the Z-score was −0.1032.
